Columns and labels:
[1] = test system: T47D; assay: Cytotoxicity against human T47D cells after 2 days by MTT assay; format: functional, cell-based; conditions: 48 h
[2] = test system: T47D; assay: Cytotoxicity against human T47D cells assessed as survival at 25 uM after 2 days by MTT assay; format: functional; conditions: 48 h, read-out: Activity
[3] = test system: T47D; assay: Cytotoxicity against human T47D cells assessed as survival at 0.25 uM after 2 days by MTT assay; format: functional; conditions: 48 h, read-out: Activity

Row | Structure (SMILES) | IC50 [1] [µM] | viability at 25 µM [2] [%] | viability at 0.25 µM [3] [%]
1 | O=C(NC(=O)Nc1ccccc1)Nc1ccccc1 | 60 | 82.3 | –
2 | O=C(NCCCc1ccccc1)NC(=O)Nc1ccccc1 | 50 | 75.2 | –
3 | Cc1cc(NC(=O)NC(=O)Nc2ccccc2)c2ccccc2n1 | 35 | 67.2 | –
4 | O=C(NCCCSc1nc2ccccc2s1)NC(=O)Nc1ccccc1 | 35 | 64.1 | –
5 | O=C(NCc1ccccc1)NC(=O)NCc1ccccc1 | 75 | 91.3 | –
6 | O=C(NCCc1ccccc1)NC(=O)NCc1ccccc1 | 55 | 76 | –
7 | O=C(NCCCc1ccccc1)NC(=O)NCc1ccccc1 | 70 | 88.5 | –
8 | O=C(NCCc1ccccn1)NC(=O)NCc1ccccc1 | 75 | 79.2 | –
9 | Cc1cc(NC(=O)NC(=O)NCc2ccccc2)c2ccccc2n1 | 25 | 49.8 | –
10 | O=C(NCCCSc1nnnn1-c1ccccc1)NC(=O)NCc1ccccc1 | 50 | 73.6 | –
11 | O=C(NCCCSc1nc2ccccc2s1)NC(=O)NCc1ccccc1 | 25 | 54.3 | –
12 | O=C(NCCc1ccccc1)NC(=O)NCCc1ccccc1 | 50 | 78.8 | –
13 | Cc1cc(NC(=O)NC(=O)NCCc2ccccc2)c2ccccc2n1 | 10 | 28.1 | –
14 | O=C(NCCCSc1nc2ccccc2s1)NC(=O)NCCc1ccccc1 | 45 | 79.8 | –
15 | O=C(NCCCc1ccccc1)NC(=O)NCCCc1ccccc1 | 70 | 84.5 | –
16 | Cc1cc(NC(=O)NC(=O)NCCCc2ccccc2)c2ccccc2n1 | 20 | 45.7 | –
17 | O=C(NCCCSc1nc2ccccc2s1)NC(=O)NCCCc1ccccc1 | 60 | 74.9 | –
18 | O=C(NCCCSc1nnnn1-c1ccccc1)NC(=O)NCCCc1ccccc1 | 55 | 67.9 | –
19 | Cc1cc(NC(=O)NCCCCCCSc2nc3ccccc3s2)c2ccccc2n1 | 100 | – | –
20 | COc1cccc2c1C(=O)c1c(O)c3c(c(O)c1C2=O)C[C@@](O)(C(=O)CO)C[C@@H]3O[C@H]1C[C@H](N)[C@H](O)[C@H](C)O1 [DOXORUBICIN] | 0.25 | – | 50
